The nature of this series: Solubility of celecoxib in aqueous media. It is filed as physicochemical. On the procedure: However, celecoxib presents certain challenges for formulation as a rapid-onset dosage form, particularly as a rapid-onset oral dosage form. For example, celecoxib has very low solubility in aqueous media (about 2 to about 5 μg/ml) and therefore is not readily dissolved and dispersed for rapid absorption in the gastrointestinal tract when administered orally, for example in tablet or capsule form. In addition, celecoxib has a relatively high dose requirement further increasing difficulties of providing a sufficient therapeutically effective dose for rapid absorption.

The structures appear in SMILES notation. Converted amounts (≈) assume the structure as drawn.

With `Cc1ccc(-c2cc(C(F)(F)F)nn2-c2ccc(S(N)(=O)=O)cc2)cc1` [celecoxib, 4-[5-(4-methylphenyl)-3-(trifluoromethyl)-1H-pyrazol-1-yl]benzenesulfonamide], the solubility fell in the range of 2 to 5 µg/mL (≈ 5.24 to 13.1 µM).

The term solubility denotes the dissolved amount per volume that the medium holds. Higher therefore signals a readily soluble substance.

For the origin of these results see patent publication US6864373B2, “Stable amorphous celecoxib composite and process therefor” (Pharmacia Corporation, priority 2002, dated 2005).
